From patent US20200061062A1, “INHIBITORS OF HUMAN PHOSPHATIDYLINOSITOL 3-KINASE DELTA” (ICOS Corporation, priority 2000, published 2020)

Assays:
[1] = target: T1, PI3Kα (Homo sapiens, UniProt P42336); test: Biochemical assay of PI3K potency and selectivity using 20 μM ATP, Alpha; conditions: for Alpha/Delta Ratio / IC50: 20 μM ATP; for Alpha/Delta Ratio: ratio of IC50 values, > = hypothetical ratio with 100 μM substituted for the missing IC50; for remaining activity at 100 µM: read-out: percent activity remaining at 100 μM, 20 μM ATP, 100 μM compound did not inhibit by at least 50%; for IC50: read-out: Alpha IC50
T1 construct: His tag (pFastbac HTb vector) (N); FLAG; made in house; host or cells: Sf21 insect cells (baculovirus)
T1 sequence (P42336 whole entry): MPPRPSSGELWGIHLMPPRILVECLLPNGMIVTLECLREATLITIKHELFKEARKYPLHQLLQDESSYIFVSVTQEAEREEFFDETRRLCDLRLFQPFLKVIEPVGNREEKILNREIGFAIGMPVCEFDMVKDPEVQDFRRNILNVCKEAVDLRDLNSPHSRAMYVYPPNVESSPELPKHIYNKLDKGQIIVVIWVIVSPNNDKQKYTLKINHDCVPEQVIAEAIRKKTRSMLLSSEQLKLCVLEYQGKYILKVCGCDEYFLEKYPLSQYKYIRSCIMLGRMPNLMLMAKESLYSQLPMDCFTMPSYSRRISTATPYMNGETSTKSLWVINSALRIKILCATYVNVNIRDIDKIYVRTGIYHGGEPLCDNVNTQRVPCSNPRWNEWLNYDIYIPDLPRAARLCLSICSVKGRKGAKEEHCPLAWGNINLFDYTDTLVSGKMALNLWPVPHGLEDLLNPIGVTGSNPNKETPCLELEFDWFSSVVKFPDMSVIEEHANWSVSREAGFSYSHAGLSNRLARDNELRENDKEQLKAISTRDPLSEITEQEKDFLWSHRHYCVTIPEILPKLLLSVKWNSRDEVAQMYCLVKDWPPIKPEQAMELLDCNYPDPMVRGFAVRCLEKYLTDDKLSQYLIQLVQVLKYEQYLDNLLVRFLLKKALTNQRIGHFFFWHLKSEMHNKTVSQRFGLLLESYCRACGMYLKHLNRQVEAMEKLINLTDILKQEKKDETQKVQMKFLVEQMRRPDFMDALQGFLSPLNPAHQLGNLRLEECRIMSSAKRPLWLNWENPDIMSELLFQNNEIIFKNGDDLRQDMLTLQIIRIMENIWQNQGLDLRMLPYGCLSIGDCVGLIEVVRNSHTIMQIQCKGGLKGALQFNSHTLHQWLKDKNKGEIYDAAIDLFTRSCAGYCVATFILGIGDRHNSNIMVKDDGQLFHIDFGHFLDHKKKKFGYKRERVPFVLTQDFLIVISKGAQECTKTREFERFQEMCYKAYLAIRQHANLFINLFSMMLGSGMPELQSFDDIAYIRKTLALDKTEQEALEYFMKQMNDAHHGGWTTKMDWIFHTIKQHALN
T1 sequence (P27986 whole entry partner): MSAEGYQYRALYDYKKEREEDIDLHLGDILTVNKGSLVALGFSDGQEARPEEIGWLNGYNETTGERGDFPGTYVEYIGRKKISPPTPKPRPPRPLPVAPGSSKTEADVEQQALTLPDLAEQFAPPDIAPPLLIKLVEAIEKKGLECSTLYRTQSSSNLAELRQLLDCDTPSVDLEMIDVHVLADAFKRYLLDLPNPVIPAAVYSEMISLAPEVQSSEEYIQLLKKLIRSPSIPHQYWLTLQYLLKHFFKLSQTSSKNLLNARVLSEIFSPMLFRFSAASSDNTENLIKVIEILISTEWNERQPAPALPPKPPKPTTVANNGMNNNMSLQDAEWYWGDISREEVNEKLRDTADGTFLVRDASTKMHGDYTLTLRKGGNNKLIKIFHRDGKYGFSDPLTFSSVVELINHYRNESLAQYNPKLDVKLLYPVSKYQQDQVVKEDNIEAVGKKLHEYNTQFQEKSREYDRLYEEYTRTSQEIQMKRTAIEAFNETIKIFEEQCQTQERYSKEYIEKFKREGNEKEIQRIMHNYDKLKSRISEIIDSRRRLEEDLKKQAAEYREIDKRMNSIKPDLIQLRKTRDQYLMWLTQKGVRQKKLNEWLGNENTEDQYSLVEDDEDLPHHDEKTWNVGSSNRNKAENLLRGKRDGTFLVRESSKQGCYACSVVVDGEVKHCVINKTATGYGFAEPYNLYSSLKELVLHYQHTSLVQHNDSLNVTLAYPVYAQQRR
Summary of the method: (§1)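 Radioactive phosphate transfer from γ-[32P]ATP onto PIP2/PS liposomes was measured in 20 mM HEPES, pH 7.4, at 20 μM ATP. The 3× substrate stock contained […] and 6 μM PIP2/PS.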

[2] = target: T2, PI3Kβ (Homo sapiens, UniProt P42338); test: Biochemical assay of PI3K potency and selectivity using 20 μM ATP, Beta; conditions: 20 μM ATP; for Beta/Delta Ratio: ratio of IC50 values, > = hypothetical ratio with 100 μM substituted for the missing IC50; for IC50: read-out: Beta IC50
T2 construct: His tag (pFastbac HTa vector) (N); FLAG (N); made in house; host or cells: Sf21 insect cells (baculovirus)
T2 sequence (P42338 whole entry): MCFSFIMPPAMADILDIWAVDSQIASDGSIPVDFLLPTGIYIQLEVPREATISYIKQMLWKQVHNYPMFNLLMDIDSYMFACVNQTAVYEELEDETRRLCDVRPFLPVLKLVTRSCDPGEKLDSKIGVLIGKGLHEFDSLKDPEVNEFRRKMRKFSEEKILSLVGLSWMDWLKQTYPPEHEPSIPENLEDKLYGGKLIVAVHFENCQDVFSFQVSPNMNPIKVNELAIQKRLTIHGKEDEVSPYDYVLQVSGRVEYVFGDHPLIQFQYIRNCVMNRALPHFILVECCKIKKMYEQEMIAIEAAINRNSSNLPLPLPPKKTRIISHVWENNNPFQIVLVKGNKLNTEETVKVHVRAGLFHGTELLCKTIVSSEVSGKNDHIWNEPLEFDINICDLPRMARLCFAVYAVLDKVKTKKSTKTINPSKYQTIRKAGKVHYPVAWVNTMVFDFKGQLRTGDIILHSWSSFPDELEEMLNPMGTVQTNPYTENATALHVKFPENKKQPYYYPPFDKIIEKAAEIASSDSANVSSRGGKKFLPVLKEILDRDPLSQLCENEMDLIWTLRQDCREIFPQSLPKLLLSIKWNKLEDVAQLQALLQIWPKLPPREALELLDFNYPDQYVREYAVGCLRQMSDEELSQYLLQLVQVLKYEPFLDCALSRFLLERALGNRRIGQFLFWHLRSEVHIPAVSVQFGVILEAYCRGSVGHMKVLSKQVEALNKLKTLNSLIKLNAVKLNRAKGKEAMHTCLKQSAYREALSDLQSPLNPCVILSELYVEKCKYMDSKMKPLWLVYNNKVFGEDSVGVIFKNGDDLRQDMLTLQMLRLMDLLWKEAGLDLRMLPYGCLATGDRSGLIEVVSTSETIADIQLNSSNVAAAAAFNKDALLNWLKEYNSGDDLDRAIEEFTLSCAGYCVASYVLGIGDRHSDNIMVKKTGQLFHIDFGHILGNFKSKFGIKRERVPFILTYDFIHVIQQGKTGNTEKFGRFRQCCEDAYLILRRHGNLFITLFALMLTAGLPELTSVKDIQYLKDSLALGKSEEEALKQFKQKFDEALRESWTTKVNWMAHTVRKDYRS
T2 sequence (P27986 whole entry partner): as the sequence (P27986 whole entry partner) above
Summary of the method: as §1

[3] = target: T1, PI3Kα; test: Biochemical assay using 200 μM ATP, Alpha
Experimental: (§2) PI3Kδ catalyzes a phosphotransfer from γ-[^32P]ATP to PIP2/PS liposomes at the D3′ position of the PIP2 lipid inositol ring. This reaction is MgCl2 dependent and is quenched in high molarity potassium phosphate buffer pH 8.0 containing 30 mM EDTA. […] The reaction products (and all unlabelled products) are transferred to a 96-well, prewetted PVDF filter plate, filtered, and washed in high molarity potassium phosphate. Scintillant is added to the dried wells and the incorporated radioactivity is quantitated.
(§3) This dilution established a final concentration of 200 μM ATP in the reaction volume. The reaction was stopped with 150 μL quench buffer (1.0 M potassium phosphate pH 8.0, 30 mM EDTA). A portion of the quenched solution (180 μL) was then transferred to a PVDF filter plate (Millipore # MAIP NOB prewetted with sequential 200 μL washes of 100% methanol, water, and finally 1.0 M potassium phosphate pH 8.0 wash buffer).
(§4) The PVDF filter plate was aspirated under moderate vacuum (2-5 mm Hg), washed with 5×200 μL of wash buffer, and then dried by aspiration. The filter was subsequently blotted, allowed to air dry completely, and inserted into a Wallac counting cassette with 50 μL of Ecoscint scintillation cocktail added per well.
(§5) Subsequent selectivity assays were done similarly using the same 3× substrate stocks except they contained 0.05 mCi/mL γ[^32P]ATP and 3 mM PIP2. Subsequent selectivity assays also used the same 3× enzyme stocks, except they now contained 3 nM of any given PI3K isoform.
(§6) For all selectivity assays, the test compounds were weighed out and dissolved into 10-50 mM stocks in 100% DMSO (depending on their respective solubilities) and stored at −20° C. […] From these dilutions, 20 μL was added into the assay wells alongside water blanks used for the enzyme (positive) control and the no enzyme (background) control.
(§7) This selectivity protocol is identical to that described above, except the 3× stock ATP concentration was 600 μM.

[4] = target: T2, PI3Kβ; test: Biochemical assay using 200 μM ATP, Beta
Experimental: as §2, §3, §4, §5, §6, §7

[5] = target: T3, PI3Kγ (Homo sapiens, UniProt P48736); test: Biochemical assay using 200 μM ATP, Gamma
T3 construct: His tag (pFastbac HTb vector) (N); FLAG (N); made in house; host or cells: Sf21 insect cells (baculovirus)
T3 sequence (P48736 whole entry): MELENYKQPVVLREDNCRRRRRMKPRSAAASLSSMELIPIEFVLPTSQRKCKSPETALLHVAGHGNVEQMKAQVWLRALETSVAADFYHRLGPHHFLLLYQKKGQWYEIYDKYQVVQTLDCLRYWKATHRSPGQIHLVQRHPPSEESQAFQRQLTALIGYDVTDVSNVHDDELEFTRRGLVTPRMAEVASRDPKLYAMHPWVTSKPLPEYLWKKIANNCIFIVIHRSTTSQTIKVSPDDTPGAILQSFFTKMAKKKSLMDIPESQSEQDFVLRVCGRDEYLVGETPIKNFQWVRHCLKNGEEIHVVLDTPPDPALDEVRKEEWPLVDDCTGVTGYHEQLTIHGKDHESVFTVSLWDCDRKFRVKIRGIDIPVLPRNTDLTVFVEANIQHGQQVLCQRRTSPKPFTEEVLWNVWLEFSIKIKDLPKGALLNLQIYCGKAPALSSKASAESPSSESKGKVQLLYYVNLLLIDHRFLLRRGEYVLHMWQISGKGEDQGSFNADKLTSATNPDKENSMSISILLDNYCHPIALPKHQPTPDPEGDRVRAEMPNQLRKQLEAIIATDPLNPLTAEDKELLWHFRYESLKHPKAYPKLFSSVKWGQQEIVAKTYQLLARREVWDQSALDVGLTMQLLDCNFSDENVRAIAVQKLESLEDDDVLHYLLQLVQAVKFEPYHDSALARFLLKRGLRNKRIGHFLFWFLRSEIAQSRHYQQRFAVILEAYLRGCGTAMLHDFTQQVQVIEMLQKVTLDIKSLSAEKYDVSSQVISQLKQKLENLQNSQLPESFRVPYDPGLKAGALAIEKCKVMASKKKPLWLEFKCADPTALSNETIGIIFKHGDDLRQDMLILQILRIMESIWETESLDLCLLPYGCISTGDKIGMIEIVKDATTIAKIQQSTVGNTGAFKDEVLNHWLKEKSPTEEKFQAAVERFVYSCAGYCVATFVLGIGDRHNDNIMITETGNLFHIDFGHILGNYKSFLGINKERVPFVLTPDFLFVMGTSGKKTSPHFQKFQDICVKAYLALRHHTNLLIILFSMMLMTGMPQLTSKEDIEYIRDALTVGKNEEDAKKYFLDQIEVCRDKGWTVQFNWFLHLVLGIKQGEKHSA

[6] = test system: human neutrophils; test: Elastase exocytosis from neutrophils (fMLP-induced); assay type: cell-based; conditions: neutrophil (PMN) elastase release
Experimental: Aliquots (8 mL) of heparinized blood from healthy volunteers were layered on 3 mL cushions of 7.3% FICOLL® (Sigma, St. Louis, Mo.) and 15.4% HYPAQUE® (Sigma) and centrifuged at 900 rpm for 30 min at room temperature in a table top centrifuge (Beckman). The neutrophil-rich band just above the FICOLL®-HYPAQUE® cushion was collected and washed with Hanks' balanced salt solution (HBSS) containing 0.1% gelatin. Residual erythrocytes were removed by hypotonic lysis with 0.2% NaCl. The neutrophil preparation was washed twice with HBSS containing 0.1% gelatin and used immediately.
In addition to superoxide generation, activated neutrophils also respond by releasing several proteases that are responsible for the destruction of tissues and cartilage during inflammation. As an indication of protease release, the effect of D-000 on elastase exocytosis was measured. Elastase exocytosis was quantitated by modification of the procedure described by Ossanna et al. (J Clin Invest, 77:1939-1951 (1986)), as follows. Purified human neutrophils (0.2×10^6) (treated with either DMSO or a serial dilution of D-000 in DMSO) were stimulated with fMLP in PBS containing 0.01 mg/mL cytochalasin B, 1.0 μM sodium azide (NaN3), 5 μg/mL L-methionine and 1 μM fMLP for 90 min at 37° C. in a 96-well plate. At the end of the incubation period, the plate was centrifuged for 5 min at 1000 rpm, and 90 μL of the supernatant was transferred to 10 μL of 10 mM solution of an elastase substrate peptide, MeO-suc-Ala-Ala-Pro-Val-pNA, wherein MeO-suc=methoxy-succinyl; pNA=p-nitroanilide (Calbiochem, San Diego, Calif.). Absorbance at 410 nm was monitored for 2 hr in a 96-well plate reader. To measure the relative amounts of elastase excytosed, all absorbance values were normalized to the values without any inhibitor. […] Inhibition was half-maximal at a concentration of about 2-3 μM D-000.
Using the methods described in Examples 3-5, above, compounds of the invention were tested for inhibitory activity and potency in assays of stimulated B and T cell proliferation, neutrophil (PMN) migration, and neutrophil (PMN) elastase release. In Table 4, the values shown are effective concentrations of the compound (EC50; μM). Where no value is given, no assay was performed.

[7] = test system: Murine splenocytes (Balb/c); test: B cell proliferation in response to cell surface IgM stimulation; assay type: cell-based; conditions: Mus musculus, Splenocyte; stimulated B cell proliferation; read-out: Mouse BCR Stim (EC50)
Summary of the method: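 Balb/c splenocytes (2×10^5/well, 10% FBS/RPMI) preincubated 30-60 min with inhibitor, then stimulated with goat F(ab′)2 anti-mouse IgM μ-chain at 25 μg/mL final. Cultured 3 days at 37° C., [^3H]-thymidine pulsed for final 4 h; incorporation counted as CPM. Values are EC50 (μM).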

[8] = test system: T cell proliferation; test: Stimulated T cell proliferation (Mouse TCE Stim, Table 4); assay type: cell-based; conditions: stimulated T cell proliferation, read-out: Mouse TCE Stim (EC50)
[9] = target: T4, PI3Kδ (Homo sapiens, UniProt O00329, S253N); test: Biochemical assay using 200 μM ATP, Delta;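 further: radiometric filter-binding assay: PI3Kδ transfers ³²P from γ-[³²P]ATP onto PIP2/PS liposomes, counted by scintillation, enzyme-only wells as positive control, no-enzyme wells as background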
T4 sequence (O00329 whole entry S253N): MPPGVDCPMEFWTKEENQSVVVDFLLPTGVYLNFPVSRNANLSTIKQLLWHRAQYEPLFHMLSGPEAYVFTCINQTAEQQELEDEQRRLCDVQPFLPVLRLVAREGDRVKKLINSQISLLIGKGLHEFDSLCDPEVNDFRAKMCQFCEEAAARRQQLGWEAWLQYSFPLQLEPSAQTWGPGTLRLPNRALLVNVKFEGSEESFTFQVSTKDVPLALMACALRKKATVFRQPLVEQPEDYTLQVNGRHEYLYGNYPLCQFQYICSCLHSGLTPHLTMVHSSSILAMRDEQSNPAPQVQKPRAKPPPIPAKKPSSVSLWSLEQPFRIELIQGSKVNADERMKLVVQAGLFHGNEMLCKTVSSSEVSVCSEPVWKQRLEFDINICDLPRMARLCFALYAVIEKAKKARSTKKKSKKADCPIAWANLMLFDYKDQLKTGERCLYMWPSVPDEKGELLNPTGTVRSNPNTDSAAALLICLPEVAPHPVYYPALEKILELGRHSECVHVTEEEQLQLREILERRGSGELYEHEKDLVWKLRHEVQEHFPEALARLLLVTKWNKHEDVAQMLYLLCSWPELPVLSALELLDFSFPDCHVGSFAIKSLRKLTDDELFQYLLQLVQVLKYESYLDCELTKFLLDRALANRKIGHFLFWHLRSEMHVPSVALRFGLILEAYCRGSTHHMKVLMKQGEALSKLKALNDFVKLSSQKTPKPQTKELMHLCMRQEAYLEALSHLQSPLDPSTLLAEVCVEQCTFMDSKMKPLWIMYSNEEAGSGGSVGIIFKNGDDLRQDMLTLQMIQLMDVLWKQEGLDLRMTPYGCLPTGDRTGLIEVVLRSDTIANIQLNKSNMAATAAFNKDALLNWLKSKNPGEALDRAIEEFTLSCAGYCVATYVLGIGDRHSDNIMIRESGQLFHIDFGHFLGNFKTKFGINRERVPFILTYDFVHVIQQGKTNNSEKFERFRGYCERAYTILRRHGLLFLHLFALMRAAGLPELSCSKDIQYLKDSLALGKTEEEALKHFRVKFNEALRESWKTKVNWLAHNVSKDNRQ
T4 sequence (P27986 whole entry partner): as the sequence (P27986 whole entry partner) above
Experimental: as §2, §3, §4, §5, §6, §7

[10] = target: T4, PI3Kδ; test: Biochemical assay of PI3K potency and selectivity using 20 μM ATP, Delta; set-up: His tag (pFastbac HTb vector) (N); FLAG; made in house; host or cells: Sf21 insect cells (baculovirus); conditions: 20 μM ATP; read-out: Delta IC50
Summary of the method: as §1

[11] = target: T3, PI3Kγ; test: Biochemical assay of PI3K potency and selectivity using 20 μM ATP, Gamma
Description: Recombinant baculoviruses containing the above clones were generated using manufacturer's recommended protocol (Life Technologies). Baculoviruses expressing His-tagged p110α, p110γ, or p110δ catalytic subunit and p85 subunit were coinfected into Sf21 insect cells. To enrich the heterodimeric enzyme complex, an excess amount of baculovirus expressing p85 subunit was infected, and the His-tagged p110 catalytic subunit complexed with p85 was purified on nickel affinity column. […] In an alternate approach, p101 can be cloned into baculovirus, to permit coexpression with its preferred binding partner p110γ. […]

SMILES	Alpha/Delta Ratio [1]	remaining activity at 100 µM [1] [%]	Beta/Delta Ratio [2]	IC50 [2] [µM]	Alpha/Delta Ratio [3]	Beta/Delta Ratio [4]	Gamma/Delta Ratio [5]	EC50 [6] [µM]	EC50 [7] [µM]	EC50 [8] [µM]	melting point	IC50 [9] [µM]	IC50 [10] [µM]	IC50 [4] [µM]	IC50 [5] [µM]	IC50 [1] [µM]	IC50 [11] [µM]	IC50 [3] [µM]	remaining activity at 100 µM ([2]; read-out: Beta: percent activity remaining at 100 μM, 100 μM compound did not inhibit by at least 50%) [%]	Gamma/Delta Ratio ([11]; ratio of IC50 values)
Nc1ncnc2c1ncn2Cc1nc2cccc(F)c2c(=O)n1-c1ccccc1Cl [Compound D-005, 2-(6-Aminopurin-9-ylmethyl)-3-(2-chlorophenyl)-5-fluoro-3H-quinazolin-4-one]	>121	89	56	46	20	16	17	4.3 ± 1	0.7 ± 0.1	3.9	159 to 172 °C (dec.)	11	0.8							
Nc1ncnc2c1ncn2Cc1nc2cccc(Cl)c2c(=O)n1-c1ccccc1Cl [Compound D-006, 2-(6-Aminopurin-o-ylmethyl)-5-chloro-3-(2-chlorophenyl)-3H-quinazolin-4-one]	>652	78	38	6	226	48	95	0.3 ± 0.1	0.2 ± 0.1	5.3	245.7 to 246 °C	0.92 ± 0.1	0.15	44 ± 5	87 ± 33					
Cc1cccc2nc(Cn3cnc4c(N)ncnc43)n(-c3ccccc3Cl)c(=O)c12 [Compound D-007, 2-(6-Aminopurin-9-ylmethyl)-3-(2-chlorophenyl)-5-methyl-3H-quinazolin-4-one]	>619	82	188	30	252	99	121	0.4	0.3 ± 0.1	4.2	190.7 to 190.9 °C	0.73 ± 0.2	0.16	72 ± 12	88 ± 4					
O=c1c2cc3ccccc3cc2nc(CSc2ncnc3[nH]cnc23)n1-c1ccccc1Cl [Compound D-019, 3-(2-Chlorophenyl)-2-(9H-purin-6-ylsulfanylmethyl)-3H-benzo[g]quinazolin-4-one]	10		15	105	7	3	1		0.9 ± 0.01	0.9	247.8 to 254.4 °C (dec.)	30	7	100	33	67				
O=c1c2ccc(F)cc2nc(CSc2ncnc3[nH]cnc23)n1-c1ccccc1Cl [Compound D-022, 3-(2-Chlorophenyl)-7-fluoro-2-(9H-purin-6-ylsulfanylmethyl)-3H-quinazolin-4-one]				110					1.8	2.3	151.4 to 154.2 °C	4.2	0.8				40			
Cc1cccc2nc(CSc3ncnc4[nH]cnc34)n(-c3ccccc3C(C)C)c(=O)c12 [Compound D-035, 3-(2-isopropylphenyl)-5-methyl-2-(9H-purin-6-ylsulfanylmethyl)-3H-quinazolin-4-one]	199		65	3	193	69	14	0.3 ± 0.1	0.2 ± 0.1	2.9 ± 0.7		0.49 ± 0.1	0.05	34 ± 6	6.8 ± 1	9		95 ± 6		
CCCCn1c(CSc2ncnc3[nH]cnc23)nc2ccccc2c1=O [Compound D-038, 3-butyl-2-(9H-purin-6-ylsulfanylmethyl)-3H-quinazolin-4-one]	>167	77	>170		77	82	31	5	1.4 ± 0.1	2.9		1.8	0.6		55		60		63	100
Cc1cccc2nc(Cn3cnc4c(N)ncnc43)n(-c3ccccc3F)c(=O)c12 [Compound D-048, 2-(6-aminopurin-9-ylmethyl)-3-(2-fluorophenyl)-5-methyl-3H-quinazolin-4-one]	449		90	14	67	70	91	0.9 ± 0.2	0.4 ± 0.2	5		1.4 ± 0.9	0.16	95 ± 7	123 ± 40	70		90 ± 57		
